Source: publication PMC7516806, “Hybrid Antimicrobial Peptide Targeting Staphylococcus aureus and Displaying Anti-infective Activity in a Murine Model” (Frontiers in Microbiology, 2020)
Values after ≈ are worked out from the molar mass of the structure shown. Positions of bridges follow the written chain, without caps; N, C: chain ends. Residues, ends and D or L forms follow the SMILES beside them.

What was measured:
RAW 264.7 cells = test: Cytotoxicity, MTT dye reduction assay; type: cell-based, murine
Description: The cytotoxicity of peptides was determined by healthy human erythrocytes and the murine macrophage cell line RAW 264.7 via a hemolysis assay and MTT dye reduction assay, respectively ([Wang et al., 2018]). In the hemolysis assay, fresh hRBCs from healthy people were centrifuged for 5 min at 1,000 × g and then washed three times with PBS (pH = 7.2). The 100 μL erythrocyte suspension and peptides were incubated for 1.5 h in an incubator at 37°C. The 96-well plates were centrifuged at 1,000 × g for 5 min, and the supernatants were carefully aspirated. The absorbance at 570 nm indicated the leakage of hemoglobin. The hRBCs in the PBS sample was used as the negative control, and 0.1% Triton X-100 addition served as the positive control. In the MTT dye reduction assay, 1.0–2.0 × 10^5 cells were plated in 96-well plates and then treated with various concentrations of peptides for 4 h at 37°C in a 5% CO2 incubator. Subsequently, 50 μL of MTT was added to the plated cells at a final concentration of 0.5 mg/mL and incubated for 4 h. Then, the cells were centrifuged at 1000 × g for 5 min, and the supernatants were discarded. Formazan crystals were dissolved in 150 μL of DMSO, and the OD570 nm was measured using a microplate reader (TECAN GENios F129004; TECAN, Austria). The experiment was repeated three times independently.

[1] = Systemic toxicity after intraperitoneal injection; type: in vivo, mice; settings: 100 μL
Description: The mice were inoculated by intraperitoneal injection with 100 μL of S2 (80 MIC), and saline was used as the control. Signs of animal distress and changes in body weight were closely monitored. After five days, all the mice were euthanized, and the blood biochemistry parameters were determined ([Mishra et al., 2019]).

S. aureus 25923 = test: MIC, modified microtiter dilution; type: cell-based, Staphylococcus aureus; settings: MHB, 2–7 × 10^5 CFU/ml, 37°C, 24 h, no turbidity, at least three independent repeats
Excerpt: (§1) The experiment was repeated at least three times independently.

S. aureus 29213 = test: MIC, modified microtiter dilution; type: cell-based, Staphylococcus aureus; settings: MHB, 2–7 × 10^5 CFU/ml, 37°C, 24 h, no turbidity, at least three independent repeats
Excerpt: as §1

S. aureus ATCC 29213 = test: SEM and TEM characterization of membrane damage; type: cell-based, Staphylococcus aureus
Description: Bacterial membrane damage induced by the peptide was visualized using scanning electron microscopy (SEM). S. aureus ATCC 29213 was washed three times using PBS after growing to the mid-log phase and diluted to an OD600 = 0.2. The bacteria were incubated for 30 min with peptide, and the bacterial growth in PBS was used as the control. The cells were washed twice with PBS and fixed with 2.5% (w/v) glutaraldehyde at 4°C overnight. The bacterial cells were dehydrated with a graded series of ethanol (50, 70, 90, and 100%) for 10 min at each step. The samples were transferred to a mixture (v: v = 1:1) of alcohol and tert-butanol for 30 min and tert-butanol alone for 1 h. The dried bacterial specimens, which were obtained using a critical point dryer, were coated and visualized under a field emission scanning electron microscope (Hitachi S-4800, Japan).
The processing method of the samples for transmission electron microscopy (TEM) was the same as the treatment for SEM. The samples were then prefixed with 2.5% glutaraldehyde at 4°C overnight, post-fixed with osmium tetroxide for 70 min, and washed twice with PBS (pH 7.2). Subsequently, the samples were dehydrated in different concentrations of ethanol (50, 70, and 90%) for 8 min in series and 10 min in 100% ethanol twice and then transferred to a mixture (v:v = 1:1) of 100% ethanol and acetone for 10 min. […]

E. coli K88 = settings: MHB, 2–7 × 10^5 CFU/ml, 37°C, 24 h, no turbidity, at least three independent repeats
Summary of the method: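 Peptides serially diluted in 0.01% acetic acid/0.2% BSA and mixed 1:1 with mid-log bacteria in MHB at 2–7 × 10^5 CFU/ml. Plates held at 37°C for 24 h. Broth with cells and broth alone served as controls; at least three independent repeats.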

[2] = mean, intraperitoneal 80 MIC, after five days

CC(C)C[C@H](NC(=O)[C@H](CC(C)C)NC(=O)[C@H](Cc1c[nH]c2ccccc12)NC(=O)[C@H](Cc1c[nH]c2ccccc12)NC(=O)[C@H](Cc1c[nH]c2ccccc12)NC(=O)[C@H](CCCNC(=N)N)NC(=O)[C@@H]1CSSC[C@H](N)C(=O)N[C@@H](C)C(=O)N[C@@H](CO)C(=O)N[C@@H](Cc2ccc(O)cc2)C(=O)N[C@@H](Cc2ccccc2)C(=O)N1)C(N)=O [Peptide S2] (H-CASYFCRWWWLL-NH2; disulfide 1-6; N-terminus assumed)
killing activity against RAW 264.7 cells (RAW 264.7 cells): no killing activity against RAW 264.7 cells | RAW 264.7 cell survival rate (RAW 264.7 cells; highest concentration of 128 μM, 4 h, three independent repeats): 105% | blood parameters versus saline treatment group ([1]; intraperitoneal, 80 MIC, after five days): unaltered | clinical signs of toxicity ([1]; intraperitoneal, 80 MIC, monitored five days): no clinical signs indicative of toxicity | blood Cl- [1, 2]: 111.25 mmol/L | blood Creatinine [1, 2]: 12.4 µM | blood Glucose [1, 2]: 10.17 mmol/L | blood I.Phos. [1, 2]: 2.335 mmol/L | blood K+ [1, 2]: 5.84 mmol/L | blood Na+ [1, 2]: 149 mmol/L | blood Urea [1, 2]: 9.43 mmol/L | MIC S. aureus 25923 (S. aureus 25923): 8 µM (≈ 13 µg/mL) | MIC S. aureus 29213 (S. aureus 29213): 8 µM (≈ 13 µg/mL) | morphology and membrane integrity by SEM (S. aureus ATCC 29213; at its MIC for 30 min): wrinkles, disrupted membrane integrity, and leakage of cell contents | morphology and internal structure by TEM (S. aureus ATCC 29213; treatment for 30 min): the membrane of S. aureus was damaged, and a substantial outflow of cytoplasm was observed | MIC E. coli K88 (E. coli K88): >64 µM
